Assay results as given in the NIST ThermoML archive (doi:10.1016/j.jct.2018.12.032).

What was measured:
[1] = Molar enthalpy of transition or fusion; settings: Crystal; DSC
[2] = for vapor or sublimation pressure: Transpiration method

c1ccc(-n2c3ccccc3c3ccccc32)cc1 [N-phenylcarbazole]
Settings	Molar enthalpy of transition or fusion [kcal/mol]
[1]	4.64

[2]
Settings	Glass transition temperature [°C]	Normal melting temperature [°C]	vapor or sublimation pressure [kPa]
330.1 K, Crystal	–	–	9.2e-06
336.4 K, Crystal	–	–	2.01e-05
343.5 K, Crystal	–	–	4.67e-05
349.2 K, Crystal	–	–	9.26e-05
350 K, Metastable liquid	–	–	0.000128
356.1 K, Crystal	–	–	0.00019
356.1 K, Metastable liquid	–	–	0.000224
362.8 K, Crystal	–	–	0.0003947
362.8 K, Metastable liquid	–	–	0.000395
368.5 K, Metastable liquid	–	–	0.000657
372.4 K, Liquid	–	–	0.000913
377.3 K, Liquid	–	–	0.001342
Crystal, DTA	–	94.8	–
Glass, DSC	-18.3	–	–
